Test results: patent publication US8921552B2, “Benzothiazole hybrids useful as anticancer agents and process for the preparation thereof” (Council of Scientific & Industrial Research, priority 2011, dated 2014)

Assays:
[1] = tested on: Colo-205; assay: In vitro cytotoxicity, SRB assay, colon cancer cell line Colo-205; assay type: cell-based, human; conditions: Homo sapiens; Colo-205 (colon), 10 μM, 48 h exposure; read-out: % of growth inhibition
Excerpt: (§1) The benzothiazole hybrids has been tested against seven human tumor cell lines derived from six cancer types (lung cancer, colon cancer, CNS cancer, ovarian cancer, prostate cancer and breast cancer). For these compounds results are expressed as percent of cell growth inhibition relative to that of untreated control cells.

[2] = tested on: human tumor cell lines; assay: In vitro anticancer activity, panel of seven human tumor cell lines (SRB assay); assay type: cell-based; conditions: for inhibition at 10 µM: Homo sapiens, range over the cell lines, exposure period of at least 48 hrs, read-out: percentage growth inhibition for invitro anticancer activity
Experimental: as §1, with “cells. A protocol of 48 h continuous drug exposure has been used, and a sulforhodamine B (SRB) protein assay was used to estimate cell viability or growth.” for “cells.”
(§2) The compounds 9b, 9h, 9m, 9r, 15c, 15h, 15m, 15r, 10b, 10h, 10m, 10r, 16c, 16h and 16m were evaluated for in vitro anticancer activity against seven human tumor cells derived from six cancer types (lung cancer, colon cancer, CNS cancer, ovarian cancer, prostate cancer and breast cancer) at concentration of 10 μM and the results are shown in Table 1.

[3] = tested on: SF-295; assay: In vitro cytotoxicity, SRB assay, CNS cancer cell line SF-295; assay type: cell-based, human; conditions: Homo sapiens; SF-295 (CNS), 10 μM, 48 h exposure; read-out: % of growth inhibition
Excerpt: as §1

[4] = tested on: MCF7; assay: In vitro cytotoxicity, SRB assay, breast cancer cell line MCF7; assay type: cell-based, human; conditions: Homo sapiens, 10 μM, 48 h exposure, read-out: % of growth inhibition
Excerpt: as §1

[5] = tested on: IGR-OV-1; assay: In vitro cytotoxicity, SRB assay, ovarian cancer cell line IGR-OV-1; assay type: cell-based, human; conditions: Homo sapiens, IGROV-1; IGR-OV-1 (ovarian), 10 μM, 48 h exposure; read-out: % of growth inhibition
Excerpt: as §1

[6] = tested on: PC-3; assay: In vitro cytotoxicity, SRB assay, prostate cancer cell line PC-3; assay type: cell-based, human; conditions: Homo sapiens; PC-3 (prostate), 10 μM, 48 h exposure; read-out: % of growth inhibition
Excerpt: as §1

[7] = tested on: A-549; assay: In vitro cytotoxicity, SRB assay, lung cancer cell line A-549; assay type: cell-based, human; conditions: Homo sapiens, A549; A-549 (lung), 10 μM, 48 h exposure; read-out: % of growth inhibition
Excerpt: as §1

[8] = tested on: SW-620; assay: In vitro cytotoxicity, SRB assay, colon cancer cell line SW-620; assay type: cell-based; conditions: Homo sapiens, SW-620 (colon), 48 h exposure, read-out: % of growth inhibition
Experimental: as §1, with “cells. A protocol of 48 h continuous drug exposure has been used, and a sulforhodamine B (SRB) protein assay was used to estimate cell viability or growth.” for “cells.”
as §2

Structure (SMILES)	inhibition at 10 µM [1] [%]	inhibition at 10 µM [2] [%]	inhibition at 10 µM [3] [%]	inhibition at 10 µM [4] [%]	inhibition at 10 µM [5] [%]	inhibition at 10 µM [6] [%]	inhibition at 10 µM [7] [%]	inhibition at 10 µM [8] [%]	cytotoxic activity in words ([2]; various human tumour cell lines)
COc1cc(-c2nc3ccccc3s2)ccc1OCCCOc1cc(/C=C\c2cc(OC)c(OC)c(OC)c2)ccc1OC [Compound 9b, 2-[3-methoxy-4-(3-{2-methoxy-5-[(Z)-2-(3,4,5-trimethoxyphenyl)-1-ethenyl]phenoxy}propoxy)phenyl]-1,3-benzothiazole]	16	1 to 100	53	57	54	78	69		
COc1ccc(/C=C\c2cc(OC)c(OC)c(OC)c2)cc1OCCCCOc1cccc(-c2nc3ccccc3s2)c1 [Compound 9r, 2-[3-(4-{2-methoxy-5-[(Z)-2-(3,4,5-trimethoxyphenyl)-1-ethenyl]phenoxy}butoxy)phenyl]-1,3-benzothiazole]		1 to 100	71	52	48	59	59	22	
COc1cc(-c2nc3ccccc3s2)ccc1OCCCOc1cc(/C=C/C(=O)c2cc(OC)c(OC)c(OC)c2)ccc1OC [Compound 10b, (E)-3-(3-{3-[4-(1,3-benzothiazol-2-yl)-2-methoxyphenoxy]propoxy}-4-methoxyphenyl)-1-(3,4,5-trimethoxyphenyl)-2-propen-1-one]		1 to 100	51	19	21	5	66	0	
COc1ccc(/C=C/C(=O)c2cc(OC)c(OC)c(OC)c2)cc1OCCCCOc1ccc(-c2nc3ccccc3s2)cc1 [Compound 10h, (E)-3-(3-{4-[4-(1,3-benzothiazol-2-yl)phenoxy]butoxy}-4-methoxyphenyl)-1-(3,4,5-trimethoxyphenyl)-2-propen-1-one]		1 to 100	38	9	17	6	31	2	
COc1ccc(/C=C/C(=O)c2cc(OC)c(OC)c(OC)c2)cc1OCCCCOc1cc(-c2nc3ccccc3s2)ccc1OC [Compound 10m, (E)-3-(3-{4-[5-(1,3-benzothiazol-2-yl)-2-methoxyphenoxy]butoxy}-4-methoxyphenyl)-1-(3,4,5-trimethoxyphenyl)-2-propen-1-one]		1 to 100	14	24	17	0	7	27	
COc1ccc(/C=C/C(=O)c2cc(OC)c(OC)c(OC)c2)cc1OCCCCOc1cccc(-c2nc3ccccc3s2)c1 [Compound 10r, (E)-3-(3-{4-[3-(1,3-benzothiazol-2-yl)phenoxy]butoxy}-4-methoxyphenyl)-1-(3,4,5-trimethoxyphenyl)-2-propen-1-one]		1 to 100	21	14	0	1	41	0	
COc1cc(-c2nc3ccccc3s2)ccc1OCCCCN1CCN(CCCCOc2cc(/C=C\c3cc(OC)c(OC)c(OC)c3)ccc2OC)CC1 [Compound 15c, 2-[3-methoxy-4-({4-[4-(4-{2-methoxy-5-[(Z)-2-(3,4,5-trimethoxyphenyl)-1-ethenyl]phenoxy}butyl)piperazino]butyl}oxy)phenyl]-1,3-benzothiazole]		1 to 100	99	95	95	53	88	86	increase in activity
